Source: patent publication US20220370448A1, “PHARMACEUTICAL COMPOSITION COMPRISING THIRD GENERATION SMALL MOLECULE EGFR INHIBITOR AND PREPARATION METHOD THEREOF” (Jiangsu Hansoh Pharmaceutical Group Co., LTD., priority 2018, published 2022)

Legend:
Permeability = assay type: in vitro ADME
Solubility = assay type: physicochemical; conditions: dependence on pH
Text: The pharmaceutical composition prepared according to the present invention has a good and uniform dissolution in different dissolution media.

EGFR T790M mutant = EGFR T790M mutant (Homo sapiens, UniProt P00533, T790M); conditions: background statement, WO2016054987; cited from earlier work
EGFR T790M mutant, sequence (P00533 25-1210 T790M): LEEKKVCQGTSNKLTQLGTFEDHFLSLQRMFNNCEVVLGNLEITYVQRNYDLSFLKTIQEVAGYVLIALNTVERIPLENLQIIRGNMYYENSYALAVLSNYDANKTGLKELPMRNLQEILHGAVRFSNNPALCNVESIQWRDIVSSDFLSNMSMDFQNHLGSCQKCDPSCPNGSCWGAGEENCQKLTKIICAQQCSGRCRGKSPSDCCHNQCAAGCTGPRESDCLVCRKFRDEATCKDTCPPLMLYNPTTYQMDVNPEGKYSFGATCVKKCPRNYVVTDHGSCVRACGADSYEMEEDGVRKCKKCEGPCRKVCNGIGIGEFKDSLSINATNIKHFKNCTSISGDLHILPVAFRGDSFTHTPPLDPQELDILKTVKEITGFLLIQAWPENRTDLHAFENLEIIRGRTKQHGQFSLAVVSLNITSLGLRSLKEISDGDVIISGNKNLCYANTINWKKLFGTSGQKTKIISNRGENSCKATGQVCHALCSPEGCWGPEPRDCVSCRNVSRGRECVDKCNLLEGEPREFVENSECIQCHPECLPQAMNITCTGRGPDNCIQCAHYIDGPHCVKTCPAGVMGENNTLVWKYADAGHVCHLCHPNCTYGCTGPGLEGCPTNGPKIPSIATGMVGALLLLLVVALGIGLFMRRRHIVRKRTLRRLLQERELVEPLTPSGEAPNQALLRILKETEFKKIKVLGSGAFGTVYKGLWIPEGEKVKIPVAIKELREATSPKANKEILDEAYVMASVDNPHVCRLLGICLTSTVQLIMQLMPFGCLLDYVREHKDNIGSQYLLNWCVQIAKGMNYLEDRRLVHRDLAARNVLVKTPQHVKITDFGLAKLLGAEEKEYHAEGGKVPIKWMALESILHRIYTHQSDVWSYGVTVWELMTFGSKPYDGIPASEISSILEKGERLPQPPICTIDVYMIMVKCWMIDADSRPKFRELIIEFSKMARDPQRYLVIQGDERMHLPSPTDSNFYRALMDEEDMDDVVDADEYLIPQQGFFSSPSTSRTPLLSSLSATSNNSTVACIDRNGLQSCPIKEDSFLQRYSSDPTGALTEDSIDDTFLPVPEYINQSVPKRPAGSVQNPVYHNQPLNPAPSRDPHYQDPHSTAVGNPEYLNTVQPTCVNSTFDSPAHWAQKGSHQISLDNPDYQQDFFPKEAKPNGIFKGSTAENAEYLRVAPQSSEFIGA

wild-type EGFR = wild-type EGFR (Homo sapiens, UniProt P00533); conditions: background statement, WO2016054987; cited from earlier work
wild-type EGFR, sequence (P00533 25-1210): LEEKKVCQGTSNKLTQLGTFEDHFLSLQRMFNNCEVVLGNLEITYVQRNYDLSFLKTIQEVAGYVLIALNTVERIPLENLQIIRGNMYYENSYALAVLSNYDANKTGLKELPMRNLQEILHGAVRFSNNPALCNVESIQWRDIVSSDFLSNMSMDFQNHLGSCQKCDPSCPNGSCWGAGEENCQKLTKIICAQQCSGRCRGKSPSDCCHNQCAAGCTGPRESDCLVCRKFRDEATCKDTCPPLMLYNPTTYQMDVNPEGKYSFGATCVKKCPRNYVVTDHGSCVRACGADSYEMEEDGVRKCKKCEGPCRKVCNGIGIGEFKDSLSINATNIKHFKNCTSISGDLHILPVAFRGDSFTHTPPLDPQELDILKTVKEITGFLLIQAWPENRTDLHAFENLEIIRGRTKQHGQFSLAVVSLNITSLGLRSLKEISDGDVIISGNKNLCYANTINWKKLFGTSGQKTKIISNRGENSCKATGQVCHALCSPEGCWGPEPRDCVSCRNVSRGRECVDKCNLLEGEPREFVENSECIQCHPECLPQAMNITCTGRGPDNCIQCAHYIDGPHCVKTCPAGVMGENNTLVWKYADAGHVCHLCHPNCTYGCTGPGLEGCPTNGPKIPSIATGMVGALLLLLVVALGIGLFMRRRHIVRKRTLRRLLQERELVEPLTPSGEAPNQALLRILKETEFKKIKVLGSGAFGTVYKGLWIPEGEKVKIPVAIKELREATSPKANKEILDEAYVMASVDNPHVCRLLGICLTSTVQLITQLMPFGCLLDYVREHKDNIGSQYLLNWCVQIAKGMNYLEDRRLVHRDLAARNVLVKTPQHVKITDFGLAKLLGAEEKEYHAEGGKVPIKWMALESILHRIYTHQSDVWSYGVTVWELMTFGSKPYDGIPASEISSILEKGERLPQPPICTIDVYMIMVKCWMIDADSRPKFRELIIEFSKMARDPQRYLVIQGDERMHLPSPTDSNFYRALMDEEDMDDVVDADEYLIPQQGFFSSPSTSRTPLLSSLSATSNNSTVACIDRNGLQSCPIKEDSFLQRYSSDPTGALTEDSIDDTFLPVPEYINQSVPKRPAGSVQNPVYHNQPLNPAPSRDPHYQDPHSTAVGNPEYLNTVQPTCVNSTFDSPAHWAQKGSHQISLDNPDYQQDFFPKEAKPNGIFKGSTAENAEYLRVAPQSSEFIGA

permeability (Permeability): low permeability
solubility (Solubility): greatly affected by pH
SMILES: C=CC(=O)Nc1cc(Nc2nccc(-c3cn(C4CC4)c4ccccc34)n2)c(OC)cc1N(C)CCN(C)C [compound of formula I, N-(5-((4-(1-cyclopropyl-1H-indol-3-yl)pyrimidin-2-yl)amino)-2-((2-(dimethylamino)ethyl)(methyl)amino)-4-methoxyphenyl)acrylamide]
selectivity for inhibiting the EGFR T790M mutant (EGFR T790M mutant): high selectivity
activity on wild-type EGFR (wild-type EGFR): no or low activity
